{"source": "patent US6956030B2", "about": "“Use of mometasone furoate for treating upper airway diseases” (Schering Corporation, priority 1994, dated 2005)", "key": {"[1]": {"test": "HPLC/radio-flow metabolite profiling of plasma, urine and fecal extracts after ^3H-MF", "type": "in vivo, normal healthy male volunteers", "from_the_text": "The substantial minimization of the systemic effect of mometasone furoate administered intranasally or by oral inhalation has been measured by High Performance Liquid Chromatography (HPLC) metabolite profiling of plasma radioactivity of mometasone furoate, its substantially complete (>98%) first-pass metabolism in the liver and by a minimal reduction in cortisol secretion levels.\n(§1) Plasma, urine, expired air filters, Respirgard and fecal samples were collected and assayed for radioactivity content. The limit of quantitation (LOQ) for plasma radioactivity ranged from 0.103 to 0.138 ng eq/ml., except for the nasal spray treatment where the LOQ was 0.025 ng eq/ml. Selected plasma, urine and fecal samples were analyzed for metabolite profiles.\nSelected plasma, urine and fecal extracts were analyzed by high performance liquid chromatography (HPLC) with radio-flow monitoring to determine metabolite profiles. […] Approximately 1.5% of the 3 hr. plasma radioactivity was associated with parent drug indicating extensive first past metabolism and rapid inactivation by the liver. In contrast, following intravenous administration, approximately 39% of the 3 hr. plasma radioactivity was associated with parent drug. Approximately 12% and 33% of the 3 hr. plasma radioactivity was associated with parent drug following administration of the MDI and Gentlehaler, respectively. In general, the plasma concentrations of radioactivity following the nasal and oral suspension routes of administration were too low for metabolite profiling.\nHydrolysis of plasma and urine was performed with an enzyme preparation containing both β-glucuronidase and aryl sulfatase. These experiments yielded modest changes in the HPLC metabolite profiles that were consistent with the hydrolytic release of conjugated metabolites."}, "[2]": {"test": "Drug metabolism/clinical pharmacology study: absorption and excretion of total radioactivity after ^3H-MF by various routes", "type": "in vivo, normal healthy male volunteers", "protocol": "In addition, a single-dose absorption, excretion and metabolism study using 200 mcg of ^3H-mometasone furoate as the nasal spray formulation was conducted in 6 normal male volunteers. When systemic absorption (based on urinary excretion) was compared to an intravenously administered dose of ^3H-mometasone furoate, it was 8%.\nA drug metabolism and clinical pharmacology study was conducted by administering (by various routes) tritium-labeled mometasone furoate (“^3H-MF”) to 6 groups of 6 normal male volunteers in each group. Blood and urine samples were collected for measurement of total drug (including metabolites).\nThe objectives of these studies in male volunteers were to determine the absorption, metabolism and excretion of ^3H-labeled mometasone furoate (“^3H-MF”) following administration by oral swallow as a solution and as an aqueous suspension of the monohydrate, by oral inhalation as a suspension from a standard metered dose inhaler (MDI) and from a metered dose inhaler containing a spacer device (Gentlehaler), by nasal inhalation as an aqueous suspension of the mometasone furoate monohydrate from a nasal spray unit and by intravenous injection as a solution.\nThirty-six (n=6 per treatment group) normal healthy male volunteers between the ages of 19 and 40 yr. (average 29 yr.) having weights in accordance with current actuarial tables (+10%) were enrolled in these single dose studies. All subjects were determined to be in good health by their medical history, physical examinations, clinical and laboratory tests.\nas §1\nPharmacokinetics—The mean (n=6) plasma concentrations of total radioactivity are illustrated in Summary FIG. 1 and the mean (n=6) pharmacokinetic parameters derived from total plasma radioactivity are presented in Table 2."}, "plasma cortisol": {"test_system": "plasma cortisol", "test": "Phase I rising single-dose study, aqueous nasal spray suspension, 24-hour plasma cortisol", "type": "in vivo, healthy male volunteers", "details": "intranasal single doses 1000, 2000 and 4000 mcg at 11 pm", "protocol": "Several Phase I studies have been completed using the aqueous nasal spray suspension formulation of mometasone furoate monohydrate. In a randomized, third party-blinded, placebo-controlled rising single-dose safety and tolerance study, the aqueous nasal spray suspension formulation was administered to eight healthy male volunteers. Doses were administered at 11 pm, and plasma cortisol concentrations were measured during the following 24-hour period."}, "[3]": {"test": "Aqueous suspension once-a-day in allergic rhinitis (summary statement)", "type": "in vivo", "from_the_text": "In treating allergic and non-allergic rhinitis, the aqueous suspension of mometasone furoate may be administered intranasally by inserting an appropriate device (such as the pump spray bottle used to deliver […]® Nasal Spray as well as the spray bottle disclosed in the Schering Corporation Industrial Design Deposit DM/026304 registered Jun. 1, 1993) into each nostril. Active drug is then expelled (nasal spray device) or could be nasally inhaled (sniffed) as a powder. Efficacy is generally assessed in a double blind fashion by a reduction in nasal symptoms (e.g., sneezing, itching, congestion, and discharge). Other objective measurements (e.g., nasal peak flow and resistance) can be used as supportive indices of efficacy. For treatment of allergic and/or inflammatory diseases of the lower airways and lung parenchyma especially diseases such as asthma, chronic obstructive pulmonary disease (“COPD”), granulomatus diseases of the lungs and lower airway passage, non-malignant proliferative disease of the lungs e.g., idiopathic pulmonary fibrosis, hypersensitivity pneumonitis and bronchopulmonary dysplasia the following dosage ranges of mometasone furoate may be used: […] Typically 2-4 mL of the aqueous suspension of mometasone furoate monohydrate may be placed in a plastic nebulizer container and the patient would inhale for 2-10 minutes."}, "[4]": {"test_system": "patients with asthma requiring treatment with inhaled corticosteroids", "test": "Randomized double-blinded multicenter Phase II study, MDI BID for 4 weeks", "type": "in vivo", "protocol": "In a recently completed, randomized, double-blinded multicenter, Phase II study, 395 patients with asthma requiring treatment with inhaled corticosteroids were randomized to one of the five treatment groups: mometasone furoate (MDI 112 mcg/day, 400 mcg/day or 1000 mcg/day, beclomethasone dipropionate (BDP) 336 mcg/day, or placebo. All treatment regimens consisted of BID dosing for 4 weeks. PROVENTIL inhalation aerosol (albuterol, USP) was supplied as rescue medication.\nEfficacy was evaluated by spirometry and by physician and patient evaluation of asthma signs and symptoms. The forced expiratory volume in one second (FEV1), forced vital capacity (FVC), and forced expiratory flow between 25% to 75% (FEF25%−75%) were measured at each visit by the investigator. The peak expiratory flow rate (PEFR) was measured twice daily (AM and PM) by the patient. FEV1 at endpoint of treatment (last evaluable visit) was the primary measure of efficacy. The investigator (at all visits) and the patient (twice daily) rated wheezing, tightness in chest, shortness of breath, and cough on a scale from 0 (None) to 6 (Incapacitating). In addition, the investigator rated the overall condition of asthma on the same scale at each visit, and the patient kept a diary of the total number of asthma attacks each day, the number of night awakenings due to asthma, and the total number of puffs of Proventil (protocol-permitted rescue medication) used. The actual value and changes from Baseline were analyzed for each visit."}}}
{"smiles": "C[C@@H]1C[C@H]2[C@@H]3CCC4=CC(=O)C=C[C@]4(C)[C@@]3(Cl)[C@@H](O)C[C@]2(C)[C@@]1(OC(=O)c1ccco1)C(=O)CCl", "note": "[mometasone furoate]", "values": [{"measurement": "extent of metabolism", "setting": "[1]; all routes of administration", "result": "extensively metabolized"}, {"measurement": "first-pass metabolism in the liver", "setting": "[1]; in vivo", "result": "> 98", "unit": "%"}, {"measurement": "detection of parent drug in plasma by metabolite profiling", "setting": "[1]; intravenous injection or oral solution, not after oral or nasal suspensions", "result": "detectable in plasma by metabolite profiling"}, {"measurement": "bioavailability", "setting": "[1]; male, human, plasma, 1.03 mg/Subject, oral solution, extensive first pass metabolism, read-out: absolute bioavailability of unchanged mometasone furoate", "result": "< 1", "unit": "%"}, {"measurement": "safety and tolerability", "setting": "[2]; all dosage forms, single dose", "result": "safe and well tolerated"}, {"measurement": "bioavailability", "setting": "[2]; male, human, plasma, inhaled or intranasal, 200 ug, nasal spray 200 mcg, single dose, read-out: bioavailability of mometasone furoate", "result": "< 1", "unit": "%"}, {"measurement": "parent drug which reaches the bloodstream from the gastrointestinal tract", "setting": "[2]; swallowed as oral suspension or by oral or nasal inhalation", "result": "less than 1%"}, {"measurement": "effect on 24-hour area under the curve plasma cortisol profile (AUC 0-24) compared to placebo", "setting": "plasma cortisol", "result": "did not significantly affect"}, {"measurement": "safety and efficacy in allergic rhinitis", "setting": "[3]; 25 up to 1600 micrograms once-a-day", "result": "safe and effective"}, {"measurement": "dose dependence of treatment effect", "setting": "[3]; once-a-day", "result": "no improvement in treatment is typically found above 400 micrograms a day"}, {"measurement": "total asthma scores, assessment of overall condition, therapeutic response", "setting": "[4]; all doses", "result": "superiority of all mometasone furoate doses relative to placebo"}, {"measurement": "improvement of a.m. PEFR versus BDP", "setting": "[4]; all doses, final week of treatment", "result": "significantly better than 336 mg dose of BDP"}, {"measurement": "FEV1 versus BDP 336 mcg/day", "setting": "[4]; two higher doses (400, 1000 mcg/day), Days 14, 21 and 28", "result": "superior to beclomethasone dipropionate"}, {"measurement": "FEV1 versus low dose (112 mcg/day)", "setting": "[4]; two higher doses, Day 21 and Day 28", "result": "significantly superior to the low mometasone furoate dose"}]}
